In brackets after ≈: the same amount, converted by molar mass.
Each compound was assayed on Mycolicibacterium vaccae (assay: Antimycobacterial activity against Mycobacterium vaccae (JMRC:STI:10670) assessed as reduction in bacterial growth incubated for 42 hrs by serial dilution method). Conditions: not given.
Assay type: functional

With O=c1nc(N2CCc3nc(-c4ccccc4)ncc3C2)sc2c([N+](=O)[O-])cc(C(F)(F)F)cc12 the MIC was 26 10^3nM.

Same assay, conditions: Mycolicibacterium vaccae, JMRC:STI:10670, read-out: MIC

In order of rising MIC:
1. O=c1nc(N2CCn3c(-c4ccccc4)cnc3C2)sc2c([N+](=O)[O-])cc(C(F)(F)F)cc12  0.0131 µM (≈ 0.0062 µg/mL)
2. CC(C)n1c2c([n+](C)c1-c1ccccc1)CN(c1nc(=O)c3cc(C(F)(F)F)cc([N+](=O)[O-])c3s1)C2  0.0477 µM
3. O=c1nc(N2CCn3cc(-c4ccc(F)c(F)c4)nc3C2)sc2c([N+](=O)[O-])cc(C(F)(F)F)cc12  0.0491 µM (≈ 0.025 µg/mL)
4. O=c1nc(N2CCn3c(nnc3-c3ccccc3)C2)sc2c([N+](=O)[O-])cc(C(F)(F)F)cc12  0.0527 µM (≈ 0.025 µg/mL)
5. O=c1nc(N2CCN(CCCC3(c4ccc(F)cc4)OCCO3)CC2)sc2c([N+](=O)[O-])cc(C(F)(F)F)cc12  0.141 µM (≈ 0.0802 µg/mL)
6. O=c1nc(N2CCn3cc(-c4ccc(F)cc4F)nc3C2)sc2c([N+](=O)[O-])cc(C(F)(F)F)cc12  0.196 µM (≈ 0.0998 µg/mL)
7. O=C(CN1CCN(c2nc(=O)c3cc(C(F)(F)F)cc([N+](=O)[O-])c3s2)CC1)N1CCOCC1  0.205 µM (≈ 0.0999 µg/mL)
8. CN1CCC(CCC2CCN(c3nc(=O)c4cc(C(F)(F)F)cc([N+](=O)[O-])c4s3)CC2)CC1  0.206 µM (≈ 0.0998 µg/mL)
9. CN1CCN(c2nc(=O)c3cc(C(F)(F)F)cc([N+](=O)[O-])c3s2)CC1  0.267 µM (≈ 0.0999 µg/mL)
10. Cn1c(-c2ccccc2)nc2c1CCN(c1nc(=O)c3cc(C(F)(F)F)cc([N+](=O)[O-])c3s1)C2  0.41 µM (≈ 0.2 µg/mL)
11. CC(C)n1c(-c2ccccc2)nc2c1CN(c1nc(=O)c3cc(C(F)(F)F)cc([N+](=O)[O-])c3s1)C2  0.798 µM (≈ 0.4 µg/mL)
12. CN(c1ccc2[nH]ncc2c1)c1nc(=O)c2cc(C(F)(F)F)cc([N+](=O)[O-])c2s1  0.949 µM (≈ 0.4 µg/mL)
13. O=c1nc(N2CCn3cc(-c4ccc(OC(F)(F)F)cc4)nc3C2)sc2c([N+](=O)[O-])cc(C(F)(F)F)cc12  1.4 µM (≈ 0.78 µg/mL)
14. O=C(c1cccc2[nH]ncc12)N1CCN(c2nc(=O)c3cc(C(F)(F)F)cc([N+](=O)[O-])c3s2)CC1  1.55 µM (≈ 0.782 µg/mL)
15. O=c1nc(N2CCn3nnc(-c4ccccc4)c3C2)sc2c([N+](=O)[O-])cc(C(F)(F)F)cc12  1.64 µM (≈ 0.778 µg/mL)
16. O=c1nc(N2CCN(c3ccc(O)cc3)CC2)sc2c([N+](=O)[O-])cc(C(F)(F)F)cc12  1.72 µM (≈ 0.778 µg/mL)
17. O=c1nc(N2CCC(CO)CC2)sc2c([N+](=O)[O-])cc(C(F)(F)F)cc12  2 µM (≈ 0.779 µg/mL)
18. O=C(c1ccc2cn[nH]c2c1)N1CCN(c2nc(=O)c3cc(C(F)(F)F)cc([N+](=O)[O-])c3s2)CC1  3.09 µM (≈ 1.56 µg/mL)
19. CCn1c(-c2ccccc2)nc2c1CN(c1nc(=O)c3cc(C(F)(F)F)cc([N+](=O)[O-])c3s1)C2  3.2 µM (≈ 1.56 µg/mL)
20. Cc1nnc2n1CCN(c1nc(=O)c3cc(C(F)(F)F)cc([N+](=O)[O-])c3s1)C2  3.78 µM (≈ 1.56 µg/mL)
21. CN(c1ccc(CN)cc1)c1nc(=O)c2cc(C(F)(F)F)cc([N+](=O)[O-])c2s1  3.8 µM (≈ 1.56 µg/mL)
22. CN1CCN(C(=O)CC(C)(C)CC(=O)N2CCN(c3nc(=O)c4cc(C(F)(F)F)cc([N+](=O)[O-])c4s3)CC2)CC1  5.34 µM (≈ 3.12 µg/mL)
23. O=C(c1ccc2[nH]ncc2c1)N1CCN(c2nc(=O)c3cc(C(F)(F)F)cc([N+](=O)[O-])c3s2)CC1  6.19 µM (≈ 3.12 µg/mL)
24. O=C(O)c1ccccc1N1CCN(c2nc(=O)c3cc(C(F)(F)F)cc([N+](=O)[O-])c3s2)CC1  6.49 µM (≈ 3.12 µg/mL)
25. CN(c1ccc(CCO)cc1)c1nc(=O)c2cc(C(F)(F)F)cc([N+](=O)[O-])c2s1  7.33 µM (≈ 3.12 µg/mL)
26. CN1CCN(C(=O)CCCC(=O)N2CCN(c3nc(=O)c4cc(C(F)(F)F)cc([N+](=O)[O-])c4s3)CC2)CC1  11.2 µM (≈ 6.23 µg/mL)
27. O=c1nc(N2Cc3[nH]nc(-c4ccccc4)c3C2)sc2c([N+](=O)[O-])cc(C(F)(F)F)cc12  13.6 µM (≈ 6.25 µg/mL)
28. O=c1nc(Nc2ccc(CCO)cc2)sc2c([N+](=O)[O-])cc(C(F)(F)F)cc12  15.2 µM (≈ 6.25 µg/mL)
29. O=c1nc(N2CCNCC2)sc2c([N+](=O)[O-])cc(C(F)(F)F)cc12  17.3 µM (≈ 6.23 µg/mL)
30. CN(c1ccc(CO)cc1)c1nc(=O)c2cc(C(F)(F)F)cc([N+](=O)[O-])c2s1  30.4 µM (≈ 12.5 µg/mL)
31. O=c1nc(N2CCn3nncc3C2)sc2c([N+](=O)[O-])cc(C(F)(F)F)cc12  31.4 µM (≈ 12.5 µg/mL)
32. O=c1nc(N2CCc3[nH]c(-c4ccccc4)nc3C2)sc2c([N+](=O)[O-])cc(C(F)(F)F)cc12  52.8 µM (≈ 25 µg/mL)
33. O=c1nc(Nc2ccc3[nH]ncc3c2)sc2c([N+](=O)[O-])cc(C(F)(F)F)cc12  61.4 µM (≈ 25 µg/mL)
34. O=c1nc(Nc2ccccc2)sc2c([N+](=O)[O-])cc(C(F)(F)F)cc12  68.1 µM (≈ 25 µg/mL)
35. O=c1nc(N2CCn3nc(-c4ccccc4)nc3C2)sc2c([N+](=O)[O-])cc(C(F)(F)F)cc12  105 µM (≈ 49.8 µg/mL)
36. CN(c1ccc(O)cc1)c1nc(=O)c2cc(C(F)(F)F)cc([N+](=O)[O-])c2s1  126 µM (≈ 50.1 µg/mL)

— ChEMBL document CHEMBL5154901, “Development of Predictive Classification Models for Whole Cell Antimycobacterial Activity of Benzothiazinones” (J Med Chem, 2022)
